Structures can show the parent of a compound that is named as a salt.
Target: T1, soluble catalytic domain fragment of human HMG reductase (Homo sapiens, UniProt P04035)
T1 construct: composed of insoluble transmembrane segment and soluble catalytic domain; purchased Sigma-Aldrich CS 1090
T1 sequence (P04035 340-888 limits assumed): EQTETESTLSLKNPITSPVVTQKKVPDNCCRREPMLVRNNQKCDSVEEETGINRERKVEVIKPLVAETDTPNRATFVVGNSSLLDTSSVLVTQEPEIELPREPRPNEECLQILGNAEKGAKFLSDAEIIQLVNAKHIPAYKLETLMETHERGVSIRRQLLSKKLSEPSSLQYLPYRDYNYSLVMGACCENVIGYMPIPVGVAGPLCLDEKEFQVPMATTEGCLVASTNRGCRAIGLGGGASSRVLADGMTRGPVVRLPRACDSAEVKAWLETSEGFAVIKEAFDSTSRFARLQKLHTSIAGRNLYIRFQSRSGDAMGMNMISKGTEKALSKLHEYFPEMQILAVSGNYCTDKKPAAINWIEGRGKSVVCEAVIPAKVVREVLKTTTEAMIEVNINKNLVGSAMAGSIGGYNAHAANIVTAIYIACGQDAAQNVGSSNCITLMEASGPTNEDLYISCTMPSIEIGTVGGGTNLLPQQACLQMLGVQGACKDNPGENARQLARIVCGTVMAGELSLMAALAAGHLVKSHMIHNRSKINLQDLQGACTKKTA
Assay: HMG-Co-A reductase inhibition activity, dose-response curves (Sigma-Aldrich assay kit, absorbance at 340 nm)
Format: biochemical
Settings: for IC50: NADP(H) 250 μM, sub-saturating NADP(H) and coenzyme A, decrease in absorbance at 340 nm, read-out: IC50 μM error; for Hill coefficient: fit of the dose-response curve; for potency relative to pravastatin in inhibiting HMG-CO-A-reductase enzyme: fraction of the potency of pravastatin
Text: SigmaAldrich. […] In: catalog number CS 1090. […].com/catalog/product/[…]®ion=HR. […] Holdgate G, Ward […]. […] Louis-Flamberg […], Bryan D L, Leber J, Elliott […] et al. […], Buchanan […]. Crystal structure of the catalytic portion of human HMG-CoA reductase: insights into regulation of activity and catalysis. […] Motulsky H, Christopoulos A. Fitting Models to Biological Data Using Linear and Nonlinear Regression: A Practical Guide to Curve Fitting Oxford University Press, USA; 1 edition 2004. […] Briefly, the dose-response curves have been measured using soluble catalytic domain fragment of human HMG reductase. […] The activity was measured by following decrease in a sample's absorbance at 340 nm caused by enzymatic oxidation of NADP(H) in presence of coenzyme A. […] NADP(H) concentration in the assay mix was adjusted to 250 μM. […] Stock solutions of Na salts of EPA-statin, ALA-statin were prepared in assay buffer in concentration of 50 mM, and subsequently diluted to lower concentrations in the same buffer as needed.

SMILES: CC/C=C\C/C=C\C/C=C\CCCCCCC[C@@H](O)C[C@@H](O)CC(=O)O [ALA-statin, Na salt, Sodium (3R,5R,13Z,16Z,19Z)-3,5-dihydroxydocosa-13,16,19-trienoate]
- IC50: 25 ± 7 µM
- Hill coefficient: 1.3 ± 0.3
- potency relative to pravastatin in inhibiting HMG-CO-A-reductase enzyme: about 1/20

SMILES: CC/C=C\C/C=C\C/C=C\C/C=C\C/C=C\CCC[C@@H](O)C[C@@H](O)CC(=O)[O-].[Na+] [EPA-statin, Na salt, Sodium (3R,5R,9Z,12Z,15Z,18Z,21Z)-3,5-dihydroxytetracosa-9,12,15,18,21-pentaenoate]
- IC50: 94 ± 8 µM
- Hill coefficient: 1.6 ± 0.6
- potency relative to pravastatin in inhibiting HMG-CO-A-reductase enzyme: about 1/100

— patent US9540307B2, “Statins of omega-3 polyunsaturated acids for treating hypercholesterolemia” (Jiva Pharma, Inc., priority 2014, dated 2017)
